Laboratory results published in patent US20190151304A1, “METHODS AND PHARMACEUTICAL COMPOSITIONS FOR THE TREATMENT OF AUTOIMMUNE INFLAMMATORY” (INSERM (INSTITUT NATIONAL DE LA SANTÉ ET DE LA RECHERCJAE …, priority 2016, published 2019).

Tests used:
OX1R = target: T1, OX1R (Homo sapiens, UniProt O43613, A280G); test: Ca2+ mobilization assay in HEK-OX1R cells (FluoForte); type: cell-based; conditions: pre-incubation 1 μM for 1 h, then 1 μM OxA
T1 construct: HEK cells expressing recombinant native OX1R (HEK-OX1R); expressed in transfected cells; host or cells: HEK cells (HEK-OX1R)
T1 sequence (O43613 1-425 A280G): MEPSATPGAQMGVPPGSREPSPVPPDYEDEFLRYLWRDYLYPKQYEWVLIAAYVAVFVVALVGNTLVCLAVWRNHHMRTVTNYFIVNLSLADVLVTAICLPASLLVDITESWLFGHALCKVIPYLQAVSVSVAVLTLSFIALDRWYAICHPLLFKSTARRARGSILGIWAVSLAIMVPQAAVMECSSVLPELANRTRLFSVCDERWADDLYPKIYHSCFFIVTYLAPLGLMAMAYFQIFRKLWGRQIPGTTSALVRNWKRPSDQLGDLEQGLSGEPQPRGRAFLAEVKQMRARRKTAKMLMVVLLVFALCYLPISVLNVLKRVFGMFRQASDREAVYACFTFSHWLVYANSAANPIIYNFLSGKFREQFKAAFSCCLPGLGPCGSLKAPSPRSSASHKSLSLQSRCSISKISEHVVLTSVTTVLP

HEK-OX1R cells = test: Cells growth determination, HEK-OX1R cells; type: cell-based; conditions: 48 hr; OxA 0.1 μM, SB408124 increasing concentrations
Experimental: (§1) FIG. 12: Determination of the inhibition of cellular growth of HEK-OX1R cells and colon adenocarcinoma cells (HT-29) induced by 0.1 μM of OxA or various concentrations of SB408124 antagonist. HEK-OX1R cells (black column) and HT-29 cells (white column) were incubated with 0.1 μM of OxA and indicated increasing concentration of SB408124, and cells were counted after 48 hr incubation. Results are expressed as the percentage of total viable cells.
(§2) Cells growth determination and apoptosis assay: HEK-OX1R cells or colon adenocarcinoma HT-29 cells were seeded, grown and maintained at 37° C. in a humidified 5% CO2/air incubator. After 24 hr culture, cells were treated with or without Orexin-A peptide or SB408124 antagonist, previously dissolved in DMSO, to be tested at the concentration indicated in the figure legends. After 48 hr of treatment, adherent cells were harvested by Trip1E (Life Technologies, Saint Aubin, France) and manually counted. Apoptosis was determined using the Guava PCA system and the Guava nexin kit.

[1] = system: colon adenocarcinoma HT-29 cells; test: Cells growth determination, HT-29 cells; type: cell-based; conditions: 48 hr; OxA 0.1 μM, SB408124 increasing concentrations
Experimental: as §1, §2

[2] = system: colon adenocarcinoma HT-29 cells; test: Apoptosis assay (annexin V-PE binding, Guava nexin kit) in HT-29 cells; type: cell-based; conditions: 48 h; orexin-A 1 μM, SB408124 various concentrations
Experimental: FIG. 13: Effect of orexin-A and SB408124 antagonist on apoptosis in OX1R expressing colon adenocarcinoma cells, HT-29. HT-29 cells were challenged with 1 μM orexin-A or various concentration of SB408124 for 48 h. Apoptosis was measured by determination of annexin V-PE binding, and results are expressed as the percentage of apoptotic cells. Results are means±SE of three experiments. ***P<0.001.
as §2

DSS-induced colitis mice = DSS-induced colitis mice model (Disease Activity Index, colon length); type: in vivo, Balb/c mice; conditions: 5% DSS in drinking water; 20 μg daily ip, one week
From the text: FIG. 2: OXA ameliorates the DAI (weight and colitis score) of DSS-induced colitis mice. Mice were orally treated with 5% DSS for 7 days in the presence or in the absence of daily intraperitoneal injection of OxA (0.22 μmoles/kg). Left, determination of gain or loss of weight in the absence of DSS treatment (Control,▴), in the presence of DSS treatment (DSS,▪) and in the presence of DSS associated to OxA treatment (DSS+OxA,●). Right, evaluation of Disease Activity Index (DAI) scored by measuring weight, length of colon, diarrhea and blood presence in the stool in DSS untreated control mice (Control,A), in DSS treated mice (DSS,▪) and in DSS treated mice associated to OxA treatment (DSS+OxA,●).
FIG. 14: Effect of daily ip inoculation of OxA, Suvorexant and Almorexant on the length of colon from DSS—(dextran sulfate sodium) treated mice mimicking the acute ulcerative colitis disease. A. Mice were treated with 5% (w/v) DSS in drinking water and daily injected with 20 μg of OxA (OXA IP), 20 μg of Suvorexant (Suvo) or 20 μg of Almorexant (Almo). Control (wt) or treated DSS mice (DSS) were daily injected with 100 μl PBS. After one week of treatment, mice were sacrificed and the length of colon which represented a good marker of inflammation state, was measured. […] B. quantification of colon length from 5 different DSS-treated mice injected with OxA (DSS+OXA IP), Almorexant (DSS+Almo), Suvorexant (DSS+Suvo) or not injected (WT and DSS). NS, no significant; *, p<0.05; ** p<0.001
Based on these observations, we have investigated the effect of Orexin A (OxA) on acute inflammation in mice treated with Dextran Sulfate Sodium (DSS). OxA was preferentially chosen in these experiments since the presence of two disulphide bridges confers it more stability. DSS induces acute colitis characterized by weight loss, bloody diarrhea, intestinal ulcerations and infiltrations with granulocytes.
DSS-induced colitis mice models: Balb/c mice were orally treated by 5% (w/v) of Dextran Sulfate Sodium (DSS) for 7 days. Orexin treatment was carried out in DSS treated mice by daily intraperitoneal injection of OxA (0.22 μmoles/kg) for 7 days. Weight and colitis symptoms (diarrhea, blood in the stool . . . ) for each mouse was daily measured. After 7 days of treatment, animals were sacrificed and colons were resected to further analyses (size, histological aspect, cytokine assays).
The inventors have thus investigated the effect of daily intraperitoneal inoculation of OxA, Suvorexant and Almorexant in the experimental context of EXAMPLE 1 (colitis). In particular they investigated the effects of the drugs on the length of colon from DSS-(dextran sulfate sodium) treated mice mimicking the acute ulcerative colitis disease. […]

Row | Compound | Effect on OxA-induced Ca2+ mobilization in HEK-OX1R cells (OX1R) | Inhibition of cellular growth of HEK-OX1R cells (HEK-OX1R cells) | Inhibition of cellular growth of HT-29 cells [1] | Apoptosis in HT-29 cells [2] | Protection from DSS induced acute ulcerative colitis (length of colon) (DSS-induced colitis mice)
1 | Cc1cc(NC(=O)Nc2ccc(N(C)C)cc2)c2cc(F)cc(F)c2n1 [SB408124] | totally abolished | strong inhibition in a dose-dependent manner | strong inhibition in a dose-dependent manner | able to induce in a dose-dependent manner cell apoptosis | 
2 | Cc1ccc(-n2nccn2)c(C(=O)N2CCN(c3nc4cc(Cl)ccc4o3)CC[C@H]2C)c1 [Suvorexant] |  |  |  |  | protect mice from DSS induced acute ulcerative colitis disease
3 | CNC(=O)[C@@H](c1ccccc1)N1CCc2cc(OC)c(OC)cc2[C@@H]1CCc1ccc(C(F)(F)F)cc1 [Almorexant] |  |  |  |  | protect mice from DSS induced acute ulcerative colitis disease
